Measured values taken from patent US20150031668A1, “CHROMAN DERIVATIVES AS TRPM8 INHIBITORS” (AMGEN INC., priority 2013, published 2015).
Counter-ions that a name gives are not always drawn.

Legend:
[1] = biological target: T1, human TRPM8 (Homo sapiens, UniProt Q7Z2W7); assay: Luminescence readout assay for measuring intracellular calcium (aequorin, CHO cells expressing human TRPM8; icilin, L-menthol or cold activation); format: cell-based; details: CHO cells expressing human TRPM8, icilin activation (1 μM), aequorin luminescence; read-out: hTRPM8 IC50
T1 construct: expressed in transfected cells; host or cells: Chinese hamster ovary (CHO) cells, T-REx tetracycline-inducible expression system (Invitrogen); co-transfected with pcDNA3.1 aequorin
Procedure, shortened: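 Activation was by 1 μM icilin, 100 μM L-menthol (test compound 2.5 min ahead) or cold buffer below 10° C (compound 1 min ahead). Calcium rise measured as aequorin luminescence in CHO cells with tetracycline-inducible human TRPM8.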

[2] = tested on: icilin induced wet-dog shakes; assay: Inhibition of icilin induced shaking (wet-dog shakes) in rats; format: in vivo, male Sprague Dawley rats; details: po; rat, dose 1 mg/kg
Method: Inhibition of Icilin Induced Shaking in Rats
Example compounds at doses ranging from 0.01 to 3 mg/kg (p.o, suspended in 5% Tween80/Oralplus or suspended in 2% HPMC-1% Tween-80 pH2.2 with MSA, 5 mL/kg) can be administered to male Sprague Dawley rats (200-300 g, Harlan, n=6-8/treatment) 2 h before icilin to assess the ability to block the spontaneous wet-dog shake phenomena induced by icilin (i.p., suspended in 100% PEG400 at 0.5 mg/kg, 1 mL/kg or p.o., suspended in 2% HPMC-1% Tween-80 at 3 mg/kg, 2.5 mL/kg). Spontaneous wet-dog shakes may be counted manually by two blinded observers or using LABORAS automation (Metris) for 30 min post-icilin. The synthesized and prophetic example compounds may be measured using these procedures and will be found to reduce the spontaneous wet dog shake phenomena induced by icilin.

T1 sequence (Q7Z2W7 whole entry): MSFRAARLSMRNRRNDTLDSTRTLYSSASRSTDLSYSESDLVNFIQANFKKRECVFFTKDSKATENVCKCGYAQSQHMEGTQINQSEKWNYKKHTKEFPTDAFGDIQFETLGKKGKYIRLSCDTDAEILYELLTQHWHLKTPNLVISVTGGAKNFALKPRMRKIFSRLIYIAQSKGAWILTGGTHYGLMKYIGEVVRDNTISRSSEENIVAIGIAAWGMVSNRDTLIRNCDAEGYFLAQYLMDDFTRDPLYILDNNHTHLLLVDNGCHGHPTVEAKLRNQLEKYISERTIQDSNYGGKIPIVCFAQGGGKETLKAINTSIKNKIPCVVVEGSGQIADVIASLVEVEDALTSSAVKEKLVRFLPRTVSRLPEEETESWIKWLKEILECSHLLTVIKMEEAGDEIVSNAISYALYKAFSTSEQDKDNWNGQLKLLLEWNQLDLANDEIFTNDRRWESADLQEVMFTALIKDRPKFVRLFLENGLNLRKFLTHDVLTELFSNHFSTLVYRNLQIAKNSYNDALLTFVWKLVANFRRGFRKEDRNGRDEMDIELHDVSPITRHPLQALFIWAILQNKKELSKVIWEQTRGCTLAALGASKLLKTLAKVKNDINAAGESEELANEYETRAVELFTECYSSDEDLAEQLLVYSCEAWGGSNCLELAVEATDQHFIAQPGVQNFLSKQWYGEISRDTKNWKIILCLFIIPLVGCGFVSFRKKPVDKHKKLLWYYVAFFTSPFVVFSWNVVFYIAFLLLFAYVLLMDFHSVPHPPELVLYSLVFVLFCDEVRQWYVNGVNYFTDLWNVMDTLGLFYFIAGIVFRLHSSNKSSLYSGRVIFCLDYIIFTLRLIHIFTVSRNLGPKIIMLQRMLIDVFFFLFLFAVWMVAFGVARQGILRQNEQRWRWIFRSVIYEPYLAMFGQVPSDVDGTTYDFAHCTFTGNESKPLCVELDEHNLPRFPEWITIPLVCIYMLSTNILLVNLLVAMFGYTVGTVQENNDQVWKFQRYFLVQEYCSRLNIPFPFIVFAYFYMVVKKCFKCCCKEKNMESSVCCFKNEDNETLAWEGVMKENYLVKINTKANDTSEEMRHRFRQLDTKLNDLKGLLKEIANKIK

Structure (SMILES)	IC50 [1] [nM]	inhibition in vivo at 1 mg/kg [2] [%]
O=C(N[C@]1(c2ccc(OC(F)(F)F)c(F)c2)CCOc2cccnc21)c1ccc(CO)cc1 [Example 158, (S)—N-(4-(3-fluoro-4-(trifluoromethoxy)phenyl)-3,4-dihydro-2H-pyrano[3,2-b]pyridin-4-yl)-4-(hydroxymethyl)benzamide]	6	92
CC(C)Cc1cc(C(=O)N[C@]2(c3ccc(OC(F)(F)F)c(F)c3)CCOc3cccnc32)ccc1C(=O)O [Example 293, (S)-4-((4-(3-fluoro-4-(trifluoromethoxy)phenyl)-3,4-dihydro-2H-pyrano[3,2-b]pyridin-4-yl)carbamoyl)-2-isobutylbenzoic acid]	7	–
O=C(NC1(c2ccc(OC(F)(F)F)c(F)c2)CCOc2cccnc21)c1ccccc1 (stereo not shown) [Example 7, N-(4-(3-fluoro-4-(trifluoromethoxy)phenyl)-3,4-dihydro-2H-pyrano[3,2-b]pyridin-4-yl)benzamide]	32	–
O=C(Nc1cc(F)c(O)c(F)c1)N[C@]1(c2ccc(OC(F)(F)F)c(F)c2)CCOc2cccnc21 [Example 97, (S)-1-(3,5-difluoro-4-hydroxyphenyl)-3-(4-(3-fluoro-4-(trifluoromethoxy)phenyl)-3,4-dihydro-2H-pyrano[3,2-b]pyridin-4-yl)urea]	159	–
O=C(N[C@]1(c2ccc(OC(F)(F)F)c(F)c2)CCOc2nccnc21)c1ccc(=O)[nH]c1 [Example 164, (S)-N-(8-(3-fluoro-4-(trifluoromethoxy)phenyl)-7,8-dihydro-6H-pyrano[2,3-b]pyrazin-8-yl)-6-oxo-1,6-dihydropyridine-3-carboxamide]	2230	–
O=C(Nc1cccnc1)N[C@]1(c2ccc(C(F)(F)F)cc2)CCOc2cccnc21 [Example 73, (S)-1-(pyridin-3-yl)-3-(4-(4-(trifluoromethyl)phenyl)-3,4-dihydro-2H-pyrano[3,2-b]pyridin-4-yl)urea]	19	–
Cn1ncc2cc(C(=O)N[C@]3(c4ccc(OC(F)(F)F)c(F)c4)CCOc4cccnc43)ccc21 [Example 53, (S)-N-(4-(3-fluoro-4-(trifluoromethoxy)phenyl)-3,4-dihydro-2H-pyrano[3,2-b]pyridin-4-yl)-1-methyl-1H-indazole-5-carboxamide]	15	–
Cc1noc(C)c1-c1ccc([C@@]2(NC(=O)c3ccc(F)cc3)CCOc3cccnc32)cc1 [Example 125, (S)-N-(4-(4-(3,5-dimethylisoxazol-4-yl)phenyl)-3,4-dihydro-2H-pyrano[3,2-b]pyridin-4-yl)-4-fluorobenzamide]	429	–
O=C(N[C@]1(c2ccc(-c3ccc(CO)cc3)cc2)CCOc2cccnc21)c1ccc(F)cc1 [Example 151, (S)-4-fluoro-N-(4-(4′-(hydroxymethyl)-[1,1′-biphenyl]-4-yl)-3,4-dihydro-2H-pyrano[3,2-b]pyridin-4-yl)benzamide]	1640	–
Cn1c(C(=O)N[C@]2(c3ccc(OC(F)(F)F)cc3)CCOc3cccnc32)cc2ccccc21 [Example 256, (S)-1-methyl-N-(4-(4-(trifluoromethoxy)phenyl)-3,4-dihydro-2H-pyrano[3,2-b]pyridin-4-yl)-1H-indole-2-carboxamide formate]	48	–
O=C(N[C@]1(c2ccc(C(F)(F)F)cc2)CCOc2cccnc21)c1ccccc1 (single isomer, unassigned) [Example 1]	14	–
O=C(N[C@]1(c2ccc(OC(F)(F)F)c(F)c2)CCOc2cccnc21)c1ccc(C(=O)O)c(Cl)c1 [Example 197, (S)-2-chloro-4-((4-(3-fluoro-4-(trifluoromethoxy)phenyl)-3,4-dihydro-2H-pyrano[3,2-b]pyridin-4-yl)carbamoyl) benzoic acid 2,2,2-trifluoroacetate]	92	–
O=C(NC1(c2ccc(OC(F)(F)F)cc2)CCOc2cccnc21)c1ccc2oc(=O)[nH]c2c1 (stereo not shown) [Example 23, 2-oxo-N-(4-(4-(trifluoromethoxy)phenyl)-3,4-dihydro-2H-pyrano[3,2-b]pyridin-4-yl)-2,3-dihydrobenzo[d]oxazole-5-carboxamide]	12	–
Cc1nc(-c2ccc(C(=O)N[C@]3(c4ccc(OC(F)(F)F)cc4)CCOc4cccnc43)cc2)no1 [Example 276, (S)-4-(5-methyl-1,2,4-oxadiazol-3-yl)-N-(4-(4-(trifluoromethoxy)phenyl)-3,4-dihydro-2H-pyrano[3,2-b]pyridin-4-yl)benzamide formate]	16	–
O=C(N[C@]1(c2ccc(C(F)(F)F)cc2)CCOc2cccnc21)c1ccc2cccnc2c1 [Example 56, (S)-N-(4-(4-(trifluoromethyl)phenyl)-3,4-dihydro-2H-pyrano[3,2-b]pyridin-4-yl)quinoline-7-carboxamide]	21	–
O=C(Nc1ccc(Br)nc1)N[C@]1(c2ccc(OC(F)(F)F)c(F)c2)CCOc2cccnc21 [Example 88, (S)-1-(6-bromopyridin-3-yl)-3-(4-(3-fluoro-4-(trifluoromethoxy)phenyl)-3,4-dihydro-2H-pyrano[3,2-b]pyridin-4-yl)urea]	115	–
Nc1ccc(C(=O)N[C@]2(c3ccc(OC(F)(F)F)c(F)c3)CCOc3cccnc32)nc1 [Example 284, (S)-5-amino-N-(4-(3-fluoro-4-(trifluoromethoxy)phenyl)-3,4-dihydro-2H-pyrano[3,2-b]pyridin-4-yl)picolinamide]	6	–
Cc1c(C(=O)O)cc(C(=O)N[C@]2(c3ccc(OC(F)(F)F)c(F)c3)CCOc3cccnc32)n1C [Example 303]	28	–
O=C(Nc1ccncn1)N[C@]1(c2ccc(OC(F)(F)F)c(F)c2)CCOc2cccnc21 [Example 89, (S)-1-(4-(3-fluoro-4-(trifluoromethoxy)phenyl)-3,4-dihydro-2H-pyrano[3,2-b]pyridin-4-yl)-3-(pyrimidin-4-yl)urea]	58	–
COc1ccc(-c2ccc([C@@]3(NC(=O)c4ccc(F)cc4)CCOc4cccnc43)cc2)c(CO)c1 [Example 136, (S)-4-fluoro-N-(4-(2′-(hydroxymethyl)-4′-methoxy-[1,1′-biphenyl]-4-yl)-3,4-dihydro-2H-pyrano[3,2-b]pyridin-4-yl)benzamide]	784	–
O=C(N[C@]1(c2ccc(OC(F)(F)F)c(F)c2)CCOc2cccnc21)c1ccc2oc(=O)[nH]c2c1 [Example 57, (S)-N-(4-(3-fluoro-4-(trifluoromethoxy)phenyl)-3,4-dihydro-2H-pyrano[3,2-b]pyridin-4-yl)-2-oxo-2,3-dihydrobenzo[d]oxazole-5-carboxamide]	4	–
O=C(NC1(c2ccc(Cl)c(Cl)c2)CCOc2cccnc21)c1ccc(F)cc1 (stereo not shown) [Example 10, N-(4-(3,4-dichlorophenyl)-3,4-dihydro-2H-pyrano[3,2-b]pyridin-4-yl)-4-fluorobenzamide]	163	–
COC(=O)c1ccc(C(=O)N[C@]2(c3ccc(Cl)c(Cl)c3)CCOc3cccnc32)nc1 [Example 183, (S)-methyl 6-((4-(3,4-dichlorophenyl)-3,4-dihydro-2H-pyrano[3,2-b]pyridin-4-yl)carbamoyl) nicotinate]	21	–
O=C(N[C@]1(c2ccc(C(F)(F)F)cc2)CCOc2cccnc21)c1ccc2cc[nH]c2c1 [Example 36, (S)-N-(4-(4-(trifluoromethyl)phenyl)-3,4-dihydro-2H-pyrano[3,2-b]pyridin-4-yl)-1H-indole-6-carboxamide]	36	–
O=C(N[C@]1(c2ccc(OC(F)(F)F)cc2)CCOc2cccnc21)c1c[nH]c2ccccc12 [Example 234, (S)-N-(4-(4-(trifluoromethoxy)phenyl)-3,4-dihydro-2H-pyrano[3,2-b]pyridin-4-yl)-1H-indole-3-carboxamide foraiate]	56.8	–
Cc1cc(C(=O)N[C@]2(c3ccc(OC(F)(F)F)c(F)c3)CCOc3cccnc32)ccc1Br [Example 167, (S)-4-bromo-N-(4-(3-fluoro-4-(trifluoromethoxy)phenyl)-3,4-dihydro-2H-pyrano [3,2-b]pyridin-4-yl)-3-methylbenzamide]	19	–
O=C(Nc1cccc(F)c1)N[C@]1(c2ccc(C(F)(F)F)cc2)CCOc2cccnc21 [Example 72, (S)-1-(3-fluorophenyl)-3-(4-(4-(trifluoromethyl)phenyl)-3,4-dihydro-2H-pyrano[3,2-b]pyridin-4-yl)urea]	112	–
O=C(N[C@]1(c2ccc(OC(F)(F)F)cc2)CCOc2cccnc21)c1ccc2cc[nH]c2c1 [Example 235, (S)-N-(4-(4-(trifluoromethoxy)phenyl)-3,4-dihydro-2H-pyrano[3,2-b]pyridin-4-yl)-1H-indole-6-carboxamide formate]	35.7	–
O=C(N[C@]1(c2ccc(OC(F)(F)F)cc2)CCOc2cccnc21)c1cccc2cccnc12 [Example 221, (S)-N-(4-(4-(trifluoromethoxy)phenyl)-3,4-dihydro-2H-pyrano[3,2-b]pyridin-4-yl)quinoline-8-carboxamide formate]	31	–
O=C(N[C@]1(c2ccc(C(F)(F)F)cc2)CCOc2cccnc21)c1cccnc1 [Example 48, (S)-N-(4-(4-(trifluoromethyl)phenyl)-3,4-dihydro-2H-pyrano[3,2-b]pyridin-4-yl)nicotinamide]	481	–
